This experiment has as its system HCT116 p38 protein level, western blot, 24 h. In words: p38 MAPK abundance shift in treated cells – cell-based, HCT116 colorectal carcinoma, chemiluminescent western blot, counter-screen for KLF5 inhibitor project, late-stage follow-up (AID 588640). Particulars: at 10 µM; for inhibition: stronger effect = higher value; for fold change: measured here: p38 band fold change vs DMSO.

Experimental findings from PubChem BioAssay AID588640 (The Scripps Research Institute Molecular Screening Center, 2011) are described below.

Active and inactive are the calls of the source.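 Rule for the calls: active = p38 protein level shifted at least 30% from the DMSO control, either lower or higher; inactive = the rest.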

In general, inhibition refers to the drop in the measured response relative to a control, in per cent. Regarding `CN(C(=O)CNC(=O)/C=C/c1cccc(Cl)c1)C1CCS(=O)(=O)C1` (stereo unspecified), the inhibition is -15.7% (inactive) and the fold change was 1.16.
In the same order, the values of `CN(C(=O)COC(=O)/C=C/c1cccc([N+](=O)[O-])c1)C1CCS(=O)(=O)C1` (stereo unspecified) are 36.3% and 0.658.
In the same order, the values of `CN(C(=O)CNC(=O)/C=C/c1cccc(Cl)c1)C1CCS(=O)(=O)CC1` are 35.2% and 0.647.
